# According to US20240368050A1, “ENHANCED PERFORMANCE UREASE INHIBITOR, COMPOSITIONS AND METHODS THEREOF” (priority 2023, published 2024):
# Like-named read-outs stand apart in the source and are kept apart here.
# How the values were obtained:
# urease [1] = type: biochemical
# urease [2] = test: Longevity of urea protection by urease inhibitor; conditions: ~0.1% NBPT; according to the literature and own studies
# Description: Urea can only benefit plants as an aqueous solution, so the protecting urease inhibitor NBPT must be also dissolved and spread along with urea.
# [3] = ammonia after 1 week, NBPT (PG, 26.70%, 8 mg) alone or oxidant added per stated mg of NBPT
# [4] = ammonia after 3 days, NBPT (PG, 26.70%, 8 mg) alone or oxidant added per stated mg of NBPT
compound,measurement,setting,value
"OO [Hydrogen Peroxide, 10%, Hydrogen Peroxide]","Urease Inhibitor Test with additional oxidant components (ammonia ppm), 1 week",urease [1],400 ppm
same,"Urease Inhibitor Test with additional oxidant components (ammonia ppm), 3 days",urease [1],0.1 ppm
"CCCCNP(N)(N)=O [NBPTO, oxidized N-(n-Butyl)thiophosphoric triamide]","Urease Inhibitor Test (ammonia ppm), 1 week",urease [1],0.6 ppm
same,"Urease Inhibitor Test (ammonia ppm), 2 weeks",urease [1],1 ppm
same,"Urease Inhibitor Test (ammonia ppm), 3 weeks",urease [1],5 ppm
same,"Urease Inhibitor Test (ammonia ppm), 3 days",urease [1],0.05 ppm
same,urease inhibition increase in comparison with NBPT,urease [1],up to eight-fold urease inhibition increase
"CCCCNP(N)(N)=S [NBPT, N-(n-Butyl)thiophosphoric triamide, reference compound]","Urease Inhibitor Test with additional oxidant components (ammonia ppm), 1 week",urease [1]; [3],800 ppm
same,"Urease Inhibitor Test (ammonia ppm), 1 week","urease [1]; ammonia after 1 week, treatment + about 5.0 g urea in 10 mL water on 60 g soil, sealed",35 ppm
same,"Urease Inhibitor Test (ammonia ppm), 2 weeks","urease [1]; ammonia after 2 weeks, treatment + about 5.0 g urea in 10 mL water on 60 g soil, sealed",600 ppm
same,"Urease Inhibitor Test with additional oxidant components (ammonia ppm), 3 days",urease [1]; [4],5 ppm
same,"Urease Inhibitor Test (ammonia ppm), 3 days","urease [1]; ammonia after 3 days, treatment + about 5.0 g urea in 10 mL water on 60 g soil, sealed",13 ppm
same,longevity of urea protection,urease [2],around one week
O=S(=O)([O-])OOS(=O)(=O)[O-].[K+].[K+] [Potassium Persulfate],"Urease Inhibitor Test with additional oxidant components (ammonia ppm), 1 week",urease [1]; [3],140 ppm
same,"Urease Inhibitor Test with additional oxidant components (ammonia ppm), 3 days",urease [1]; [4],1 ppm
